Test results as given in patent US9493482B2, “Compounds and methods for preventing or treating sensory hair cell death” (University of Washington, priority 2015, dated 2016).
Counter-ions that a name gives are not always drawn.

What was measured:
[1] = Effect of Amikacin and Compound 9 on Kidney Function: creatinine clearance; format: in vivo, Fischer 344 rats; settings: FIG. 3
Procedure: (§1) The study consisted of three groups of Fischer 344 rats aged 6 weeks and weighing approximately 200 g at the start of the study. Group 1 consisted of six rats, randomly selected to receive amikacin only, Group 2 consisted of six rats chosen randomly to receive amikacin and compound 9, and Group 3 consisted of three rats, 2 rats given compound 9 and 1 rat given only 0.5% Methylcellulose, the diluent for compound 9. All animals receiving amikacin were given 320 mg/kg subcutaneously (SQ) from a freshly prepared solution of amikacin of 40 mg/mL. The compound 9 formulation was prepared by weighing 13.08 mg of compound 9 dissolved in 12 mL of 0.5% MC in saline with vortexing, sonification and homogenization to obtain a solution with concentration at 12 mg/12 mL=1 mg/mL, dose volume is 5 mL/kg (5 mg/kg). The compound 9 solution was given by oral gavage at a dose of 5 mg/kg.
(§2) One day prior to the onset of dosing, blood was drawn from all rats for serum analysis and all rats were put into metabolic cages for 24 hour urine collection and analysis. All rats were returned to normal cages and allowed to eat and drink ad lib. All rats received their assigned treatments for 10 days and then were returned to metabolic cages for the 10th day. […] The pathologist read the slides, blinded to the group from which they were assigned. […]

[2] = Auditory Brainstem Response (ABR) Assay; format: in vivo, rats; settings: Day 24 vs Day 0, FIG. 2
Procedure: Chronic treatment of rats with aminoglycosides (AGs) such as kanamycin or amikacin results in an elevation of ABR thresholds, typically most pronounced at higher frequencies. For rats, hearing is tested at a range of frequencies to determine the intensity of sound (measured in decibels) necessary to evoke a response. As hearing loss becomes more severe, a higher intensity is needed to evoke a response. Each rat serves as its own control; hearing thresholds are determined at each frequency prior to any treatment and then at 2 weeks after a 10-day course of AG treatment (or control drug exposures).
The ABR assay measures short latency field potentials recorded from the scalp of animals that were sedated or noninvasively immobilized. […] For each animal, hearing thresholds, wave 1 latencies and input-output functions for stimulus frequencies at 2, 4, 8, 16 and 32 kHz were measured prior to any treatment to determine the initial sensitivity and dynamic range of hearing, and then repeated at the end of drug treatment and at the end of the experiment (2-weeks after dosing). […]
ABR records were evaluated by a “blinded”, trained experimenter. Hearing loss (Threshold Shift) was determined by subtracting the threshold during pre-treatment (Day 0) from the final ABR threshold (Day 24; two weeks following treatment). […]

kidney = experiment: Kidney histopathology after amikacin with or without compound 9; format: in vivo, Fischer 344 rats; settings: amikacin only, section type (longitudinal or cross) not stated, FIG. 4
Procedure: as §1, §2

SMILES | creatinine clearance (CrCl) post treatment vs baseline ([1]; Group 2: amikacin 320 mg/kg SQ + compound 9 5 mg/kg oral gavage for 10 days) | Hearing loss (Threshold Shift), high frequency ([2]; AMI/320 (amikacin SC 320 mg/kg/day) + Compound 9 PO 5 mg/kg/day for 10 days) | creatinine clearance (CrCl) post treatment vs baseline ([1]; Group 1: amikacin only 320 mg/kg SQ for 10 days) | Hearing loss (Threshold Shift) ([2]; amikacin alone SC 320 mg/kg/day for 10 days) | kidney histopathology damage score (0-4) (kidney; first stated change (3.9 to 3.6)) | kidney histopathology damage score (0-4) (kidney; second stated change (3.9 to 3.1))
CN1[C@H]2CC[C@@H]1c1c(sc(NC(=O)Nc3ccc(Cl)cc3)c1C(N)=O)C2 [Compound 9, (4R,7S)-2-(3-(4-chlorophenyl)ureido)-9-methyl-5,6,7,8-tetrahydro-4H-4,7-epiminocyclohepta[b]thiophene-3-carboxamide hydrochloride] | significantly different from baseline | robust protection | – | – | – | –
NCC[C@H](O)C(=O)N[C@@H]1C[C@H](N)[C@@H](O[C@H]2O[C@H](CN)[C@@H](O)[C@H](O)[C@H]2O)[C@H](O)[C@H]1O[C@H]1O[C@H](CO)[C@@H](O)[C@H](N)[C@H]1O [amikacin] | – | – | significantly different from baseline | hearing loss | 3.9 | 3.9
